Like-named read-outs stand apart in the source and are kept apart here.

For one series, the system named is cancer cell lines. Conditions: HELA, DU 145, HCT115, K562, C1498, HL-60, SMMC-7721, Tca8113; cited from earlier work.
In another series the test system is DU-145 (prostate cancer). Particulars: DU-145 tumor cells; cited from earlier work.
In another series the test system is Lemna gibba G1. Particulars: cited from earlier work.
The subject of a further series is stomata opening. Particulars: 10 mcM ABA extracellular, cited from earlier work.
Series [1] has as its system HELA, DU145, HCT116 AND K562. Particulars: cited from earlier work.
For series [2], the system named is HL-60 (promyelocytic leukemia). Particulars: HL-60 tumor cells; cited from earlier work.
The test system of another series is TCA8113 cells. Particulars: cited from earlier work.
The test system of the next series is leaf discs of V. Faba. Conditions: cited from earlier work.
In a further series the test system is nuclear protein Ki67. Conditions: proliferating tumor cells; cited from earlier work.
For series [3], the system named is C1498 transplanted tumor with myeloid leukemia. Conditions: groups of 10 mice, 7 days treatment, cited from earlier work.
For series [4] the test system is unchanged. Put plainly: Survival of C57BL/6J mice with C1498 transplanted tumor (Livingston). In kind it is in vivo. Particulars: for survival: oral. An excerpt:
For determination of cancer survival rate, she used C57BL/6J mice and C1498 transplanted tumor with myeloid leukemia purchased from the Jackson Laboratory in Maine. This type of cancer was lethal in mice in 10-15 days. ABA furnished by Hoffmann-Laroche was suspended in saline and administered as suspension. Groups of 10 mice were used for treatment for a total of 7 days.

Another series has as its system cancer. Conditions: 62 human cases, digestive ABA plus six vaccines, inconclusive cases not considered; cited from earlier work.
For series [5] the following is noted: can rearrange to PA; cited from earlier work.
For series [6] the following is noted: 50 mg/ml, Sigma-Aldrich material; cited from earlier work.

As usually defined, the half-life is the time needed for the level to fall by half in the phase considered. For “[S-(Z,E)]-5-(1-Hydroxy-2,6,6-trimethyl-4-oxo-2-cyclohexen-1-yl)-3-methyl-2,4-pentadienoic acid [ABA]”, the “effect against cancer cell lines” value in the series with cancer cell lines was “severe effect”. In addition, the “changes in morphology of cancer cells” value in the series with DU-145 (prostate cancer) was “growth in poor condition and nuclear pycnosis”; in series [2], “absence of tumor cell nuclear membrane microvillus and presentation of typical apoptosis characteristics”. Also, in the series with Lemna gibba G1 (10-100 mcm ABA), the “potential increase in average” value is given as 85 mV. Besides, the “EPD after ABA treatment” value in the series on Lemna gibba G1 (after 15 hours ABA treatment, from −109 mV) is reported as −194 mV. In addition, the “inhibition of stomata opening” value in the series with stomata opening (pH 6.15) is listed as 98%; in the series on stomata opening (pH 8.0) it was 57%. For the same compound, the “effects in four human cancer cell lines” value in series [1] is “caused a tumor growth reduction, reduced cell proliferation rate, changed cell cycle progression, and produced induction of apoptosis”. The Involucrin protein expression entry in the series with TCA8113 cells (differentiation of TCA8113 affected by ABA) is “expressed”. Further, the “retinoic acid receptor beta (RARBETA) expression” value in the series on TCA8113 cells (under treatment with ABA) was “expressed and not silenced”. In addition, in the series with leaf discs of V. Faba, the half-life was 6 to 8 h. Besides, the “nuclear protein Ki67 expression” value in the series with nuclear protein Ki67 is given as “reduced”. Also, the “rate of survival at the end of 14 days” value in [3] (ABA 1 mg/kg i.p.) was 9 survivors; in [3] (ABA 10 mg/kg i.p.) it was 10 survivors; in series [3] (ABA 10 mg/kg oral), 6 survivors; in series [3] (ABA 100 mg/kg oral) it was 9 survivors. This compound gave a survivors in series [4] (group II, 1 mg/kg) of 90%. The results for the survival in series [4] (10 mg/kg) and in series [4] (100 mg/kg) were 60% and 90%, respectively. Also, the success rate result in the series with cancer is on record as “around 82%”.

`CC(C=CC1(O)C(C)=CC(=O)CC1(C)CO)=CC(=O)O` (centres unmarked) [Metabolite C, 6′-hydroxy methyl ABA]: the stability result in series [5] is “extremely unstable”.

As for `CC1=CC(=O)CC(C)(C)C1(O)/C=C/C(C)=C\C(=O)O` (racemic) [(+/−)-Abscisic acid], the “appearance of solution in ethanol” value in series [6] is reported as “clear to slightly hazy”.

As for `CC1=CC(=O)CC(C)(C)C1(O)/C=C/C(C)=C\C(=O)O` (racemic) [racemic ABA, reference compound], the half-life with leaf discs of V. Faba is 30 to 32 h.

Values taken from patent US20140205660A1, “Abscisic acid against cancer” (priority 2013, published 2014).
